# Results taken from patent US6407137B2, “Dopamine analog amide” (Protarga, Inc., priority 1988, dated 2002).
# Where “and” joins values, the source holds several entries; their conditions need not be identical. Identical values can stand only once. Entries after “also recorded” stand apart in the source; their conditions may differ. Like-named read-outs stand apart in the source and are kept apart here.
# How the values were obtained:
# [1] = Brain penetration index (BPI) determination, brain uptake relative to liver; type: in vivo, male balb C mice; settings: for crossing of the blood brain barrier (in words): variations of the carrier; for BPI Value (%): BPI=[brain]/[liver]x100, 5 minutes after s.c. injection; for brain uptake / BPI relative to dopamine: compared with dopamine
# Description: A brain penetration index (BPI) determination was used as a criterion for measuring the capacity of a compound to cross the blood brain barrier. Shashoua, V. E., Jacob, J. N., Ridge, R., Campbell, A. and Baldessarini, R. J., J. Med. Chem. 27, 659 (1984). The BPI is a measure of the uptake of a compound by the brain relative to its uptake by the liver. The liver is chosen as a reference since it is an organ which has no barrier to diffusable molecules present in the blood. Moreover, even if subcutaneous injections are used, the injected material tends to remain largely at the site of the injection and slowly diffuse into the circulation. Therefore, the amount of material in the liver will reflect the amount available rather than the initial dose injected.
# Measurements of the quantity of the drug present in the brain and liver were measured at five minutes after a subcutaneous injection and were used to calculate the BPI, the equation being: […]
# For these measurements, compound 8739 was synthesized from ^14C-labeled dopamine. Thirty μCi of dopamine labeled hydrochloride was mixed with 0.1 mg of unlabeled dopamine hydrobromide and reacted with a two-fold excess of DHA anhydride. The reaction was run overnight; the product was then evaporated to dryness and dissolved in ethanol. The compound was identified as 8739 by its migration properties on thin-layer chromatography using chloroform:methanol as one solvent and dimethylformamide (DMF) as the other. The migration properties were equivalent to those of the unlabeled product.
# ^14C-labeled 8739 was dissolved in 15% propylene glycol in 0.1 M NaHCO3 and then injected subcutaneously (s.c.) into male balb C mice (20±2 g). After 5 minutes the animals were sacrificed by cervical fracture and the brain and liver were dissected out, weighed and homogenized in 8 and 10 ml of Brain Protein Solvent (BPS) buffer, respectively [BPS=2% sodium dodecyl sulfate in 0.03 M Tris, 6 M urea, pH 7.6, 0.01 M EDTA and 0.14 N NaCl]. Aliquots were then counted for ^14C content in 10 ml of a liquid scintillation fluid, Liquiscent (National Diagnostic Company, Somerville, N.J.) using a Beckman liquid scintillation counter. The ^14C counts were then used to calculate the total quantity of compound 8739 present in the brain per gram of tissue as compared to that in the liver. The ratio of the amount in the brain as a percent of that present in liver was determined.
# [2] = Food consumption measurements; type: in vivo, balb-c mice; settings: for activity as an appetite-suppressant (in words): variations of the carrier
# Description: The effect of compound 8739 on food consumption was determined for balb-c mice that were food deprived for 24 hr, with water freely available. The six test mice were given an i.p. injection of compound 8739 as a solution in 15% propylene glycol in 0.1 M NaHCO3, a total volume of between about 0.1-0.3 ml. The six control mice received the same volume of vehicle, but no drug. The quantity of “mouse chow” eaten during the 60-min period following the injections was determined. The results, also shown in FIG. 1, are expressed as the percent decrease in food consumption for the test group versus the control group. […] The decrease was dose dependent, with higher doses of compound 8739 causing greater decrease in food intake. The same experiment was conducted using oral administration of compound 8739.
# [3] = animal tests, background; cited from earlier work
# [4] = Test for tolerance: food consumption during long-term administration; type: in vivo, mice; settings: for tolerance: food intake
# Description: The effect of long-term administration of compound 8739 on the pattern of food consumption of mice was compared to the long-term effects of the administration of amphetamine. Daily i.p. injections of compound 8739 (20 mg/kg) were given to test animals and daily i.p. injections of amphetamine (2 mg/kg) were given to control animals for 21 days. 24 hours after the first injection and about every five days after that, the animals were food-deprived for 24 hours with water freely available, and then were tested for food consumption for one-hour beginning at five minutes after receiving their daily injection.
# FIG. 4 plots the percent decrease in food consumption versus time.
# [5] = Circling behavior in rats with unilateral nigrostriatal lesions; type: in vivo; settings: for AVERAGE ROTATION SCORES (Rotations/minutes) Contralateral / AVERAGE ROTATION SCORES (Rotations/minutes) Ipsilateral: 30-min period; for circling behavior (in words): rats with nigrostriatal lesions, i.p.
# Description: Dopamine agonists such as apomorphine and amphetamine cause circling behavior in animals with nigrostriatal lesions.
# Unilateral nigrostriatal lesions in rats were produced by administering unilateral injections of 6-OH dopamine into the nigrostriatum pathway. Seven days later, these animals were i.p. injected with the test drugs and circling behavior was recorded as rotations per minute during a 30-min period in the test apparatus, Ungerstedt U. and Arbathnott G. W., Brain Res. 24, 485-493 (1970).
# [6] = Self-stimulation test (electrodes in lateral hypothalamus); type: in vivo; settings: rats
# Description: A self-stimulation test has been used to measure the capacity of a given pharmacological agent to inhibit rats from receiving self-induced electrical stimuli via electrodes implanted in their brains (lateral hypothalamus). Stellar J. R. and Stellar E., The Neurobiology of Motivation and Reward, Springer-Verlag, New York, 1985. Animals will press levers to receive a pulse of current from the implanted electrode at a rate dependent upon the quantity of current that is being delivered as a reward. […] R.). […] A plot of the log of the frequency of the delivered pulses vs. the rate of level press for an animal gives the self-stimulation reward curve. Injections of drugs which have a neuroleptic-type or tranquilizing effect can depress the rate of self-stimulation, shifting the response to higher current deliveries. Pemozide can give a depressed rate by about 90%. […] The animal continues to press the lever at the rate equivalent to a non-injected control or one receiving the vehicle alone.
# D-2 dopamine receptors = D-2 dopamine receptors (Homo sapiens, UniProt P14416); assay: Dopamine receptor binding assay (D-2)
# Sequence of D-2 dopamine receptors (P14416 whole entry): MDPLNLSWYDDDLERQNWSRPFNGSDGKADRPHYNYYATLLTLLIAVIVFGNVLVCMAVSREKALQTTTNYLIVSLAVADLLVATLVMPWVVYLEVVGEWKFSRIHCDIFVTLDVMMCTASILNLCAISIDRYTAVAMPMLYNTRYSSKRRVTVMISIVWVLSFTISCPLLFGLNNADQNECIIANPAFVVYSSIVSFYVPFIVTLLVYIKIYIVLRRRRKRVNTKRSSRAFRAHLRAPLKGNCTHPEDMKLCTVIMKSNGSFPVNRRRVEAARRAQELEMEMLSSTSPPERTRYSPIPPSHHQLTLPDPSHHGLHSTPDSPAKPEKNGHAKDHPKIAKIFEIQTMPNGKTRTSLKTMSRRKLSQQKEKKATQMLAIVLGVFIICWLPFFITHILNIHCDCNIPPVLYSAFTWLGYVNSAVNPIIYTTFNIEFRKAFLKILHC
# [7] = in vivo
# Description: Many of the undesirable side effects of amphetamines were absent. […] Failure to induce tolerance was unexpected.
# [8] = Test for tolerance: open field activity during daily injections; type: in vivo, mice; settings: 20 mg/kg i.p. daily for 21 days
# Description: The effects of daily i.p. injections of compound 8739 at a dose of 20 mg/kg on open field activity and food consumption was tested to determine whether tolerance to the drug was induced over time. The open field activity of six test mice and six control mice was monitored for five days. Then, the test mice were given i.p. injections of the drug in a vehicle and the control mice were given i.p. injections of the vehicle only. This regimen was carried out for a 21 day test period. At the end of the 21 days, the vehicle alone was given daily to both test and control mice and open field activity and food consumption was monitored for an additional six days.
# FIG. 3 plots the percent decrease in open field activity of the test mice (n=6) as compared to the controls (n=6). […] Upon initation of injections, there was a 30% to 60% decrease in open field activity. […] Beginning at day 22 and daily until day 27, vehicle alone was given to both groups.
# Swelling of the brain = assay: Swelling of the brain
# Description: Another favorable property of compound 8739 was unexpected. […] Chan, P. H., Fishman, R. A., SCIENCE, Vol. 20, 358-360 (1978).
# [9] = Pattern of distribution of 14C-labeled 8739 in membranes of the central nervous system (P1/P2 fractions); type: in vivo, mice
# Description: The fraction P1 containing nuclear and cell membrane components was sedimented for 5 min at 2,500 rpm at 0° C. The supernatant containing the crude synaptosomal fraction was next centrifuged at 13,000 rpm for 30 min to yield a pellet containing the crude synaptosomal fraction (P2). P1 and P2 were then dissolved in BPS, and the amount of label and protein in each fraction was determined.
# [10] = Open-field motor activity measurement; type: in vivo, balb-c mice; settings: for changes in open-field activity: administered at the same dose as compound 8739
# Description: The effect of compound 8739 on general motor activity was determined. The general motor activity of balb-c mice was measured in a Stoelting electronic activity monitor apparatus during a 90-min period following an intraperitoneal injection of the compound as a solution in 15% propylene glycol in 0.1 M NaHCO3. A detailed description of the apparatus is reported in Stewart R. J., Campbell A., Spark G. and Balessarini R. J. Psychopharmacol. 60, 281 (1979).
# The test group (six mice) received an i.p. injection of the drug in a vehicle (15% propylene glycol in 0.1 M NaHCO3, a total volume of between about […].). The six control mice received the same volume of vehicle, but no drug. The results (Shown in FIG. 1,) are expressed as the percent decrease in open field activity for the test group versus the control group. […] The response was dose dependant with higher doses of compound 8739 resulting in a greater decrease in general motor activity.
# The effects of the mode of delivery of Compound 8739 (oral vs. i.p.) on the general open-field activity of mice (n=6) was assessed. […] A 40-50% decrease in activity occurred when either delivery method was employed.
# D-1 dopamine receptors = assay: Dopamine receptor binding assay (D-1)
# Sequence of D-1 dopamine receptors (P21728 whole entry): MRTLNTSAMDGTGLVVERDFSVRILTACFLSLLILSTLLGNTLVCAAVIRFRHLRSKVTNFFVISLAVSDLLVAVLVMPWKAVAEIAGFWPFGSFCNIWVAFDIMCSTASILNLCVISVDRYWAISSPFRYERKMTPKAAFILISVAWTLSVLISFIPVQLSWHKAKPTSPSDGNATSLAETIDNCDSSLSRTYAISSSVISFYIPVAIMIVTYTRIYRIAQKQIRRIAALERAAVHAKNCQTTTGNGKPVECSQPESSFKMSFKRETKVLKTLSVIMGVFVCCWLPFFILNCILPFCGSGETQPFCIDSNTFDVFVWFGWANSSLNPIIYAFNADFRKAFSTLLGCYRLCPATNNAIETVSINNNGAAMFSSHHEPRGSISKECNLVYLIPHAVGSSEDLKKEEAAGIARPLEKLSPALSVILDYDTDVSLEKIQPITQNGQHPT
# [11] = reported in the literature; cited from earlier work
# [12] = previous reports, Chan and Fishman, SCIENCE (1978); cited from earlier work
# [13] = 14C-labeled 8739 s.c., mice, brain, 30 min
# [14] = 14C-labeled, s.c. injection, mice, 5 minutes after injection
smiles,measurement,setting,value
CCCCCCCCCCCC(=O)NCCc1ccc(O)c(O)c1,crossing of the blood brain barrier (in words),[1],does not effectively cross the blood brain barrier
same,activity as an appetite-suppressant (in words),[2],completely inactive
CCCCCCCCCCCCCCCCCCCCCC(=O)NCCc1ccc(O)c(O)c1,crossing of the blood brain barrier (in words),[1],does not effectively cross the blood brain barrier
same,activity as an appetite-suppressant (in words),[2],essentially inactive
CC(N)Cc1ccccc1 (stereo not drawn) [Amphetamine],time within which tolerance develops,[3],3 to 15 days
same,decrease in food intake over time,[4]; 2 mg/kg i.p. daily for 21 days,virtually disappeared after 15 days
same,tolerance,[4]; 2 mg/kg i.p. daily for 21 days,complete tolerance
same,AVERAGE ROTATION SCORES (Rotations/minutes) Contralateral,[5]; 3.0 mg/kg i.p.,0.4 Rotations/minutes
same,AVERAGE ROTATION SCORES (Rotations/minutes) Ipsilateral,[5]; 3.0 mg/kg i.p.,2.5 Rotations/minutes
same,AVERAGE ROTATION SCORES (Rotations/minutes) Contralateral,[5]; 5.0 mg/kg i.p.,0.92 Rotations/minutes
same,AVERAGE ROTATION SCORES (Rotations/minutes) Ipsilateral,[5]; 5.0 mg/kg i.p.,3.32 Rotations/minutes
same,circling behavior (in words),[5],circling rapidly to the ipsilateral lesion side
CN1CCc2cccc3c2[C@H]1Cc1ccc(O)c(O)c1-3 [Apomorphine],AVERAGE ROTATION SCORES (Rotations/minutes) Contralateral,[5]; 0.1 mg/kg i.p.,4.8 Rotations/minutes
same,AVERAGE ROTATION SCORES (Rotations/minutes) Ipsilateral,[5]; 0.1 mg/kg i.p.,0.1 Rotations/minutes
same,AVERAGE ROTATION SCORES (Rotations/minutes) Contralateral,[5]; 0.5 mg/kg i.p.,13.7 Rotations/minutes
same,AVERAGE ROTATION SCORES (Rotations/minutes) Ipsilateral,[5]; 0.5 mg/kg i.p.,0 Rotations/minutes
same,circling behavior (in words),[5],rapid circling behavior to the contralateral side of the lesion
CC/C=C\C/C=C\C/C=C\C/C=C\C/C=C\C/C=C\CCC(=O)NCCc1ccc(O)c(O)c1 [Compound 8739],"effect on self-stimulation parameters (reward, motor aspect, motivation)",[6],no effect on either the reward or the motor aspect; also recorded: do not result
same,binding to D-2 dopamine receptors,D-2 dopamine receptors,does not bind
same,effects on motor function or motivation,[7],failed to demonstrate any diverse effects
same,stereotypy,[7],failed to induce
same,tolerance,[8],no indication of tolerance
same,tolerance,[8]; listed as compound 8739,no tolerance was induced
same,swelling of the brain,Swelling of the brain,did not induce any swelling
same,"P1 (Nuclear and Cell Membrane Fraction), CPM/mg Protein after 30 min of Uptake",[9]; [13],4.19 CPM/mg Protein and 2.7 CPM/mg Protein
same,P2/P1,[9]; [13],2.9 and 1.9 and 2.1
same,"factor by which uptake into P2 was greater than into P1, average",[9]; average of the experiments of Table II,2.3
same,tolerance,[4]; 20 mg/kg i.p. daily for 21 days,no tolerance had developed
same,AVERAGE ROTATION SCORES (Rotations/minutes) Contralateral,[5]; 34 mg/kg i.p.,0.05 Rotations/minutes
same,AVERAGE ROTATION SCORES (Rotations/minutes) Ipsilateral,[5]; 34 mg/kg i.p.,0.08 Rotations/minutes
same,AVERAGE ROTATION SCORES (Rotations/minutes) Contralateral,[5]; 51 mg/kg i.p.,0.12 Rotations/minutes
same,AVERAGE ROTATION SCORES (Rotations/minutes) Ipsilateral,[5]; 51 mg/kg i.p.,0.08 Rotations/minutes
same,circling behavior (in words),[5],failed to produce an effect; also recorded: did not evoke this behavior
same,circling behavior (in words),[5]; listed as compound 8739,do not result
same,Brain (cpm/g),[1]; [14],1305 cpm/g and 1297 cpm/g
same,Liver (cpm/g),[1]; [14],4300 cpm/g and 3931 cpm/g
same,BPI Value (%),[1],30% and 33%
same,brain uptake / BPI relative to dopamine,[1],eight times that of dopamine
same,brain uptake / BPI relative to dopamine,[1]; listed as compound 8739,over eight-fold higher
same,"percent decrease in open field activity, test group versus control group","[10]; i.p. injection, mice, 90-min period",40-50%
same,decrease in open-field activity,"[10]; oral delivery, mice n=6",40-50%
same,activity when given orally compared with injection,[10]; oral vs. i.p.,as active when ingested as when injected; also recorded: without any apparent loss in efficacy
same,"food consumption, oral administration compared with i.p.","[2]; oral administration, same experiment",The results were the same
same,binding to D-1 dopamine receptors,D-1 dopamine receptors,does not bind
O=C[C@H](O)[C@@H](O)[C@H](O)[C@H](O)CO [D-glucose],BPI Value (%),[11],33%
same,BPI index,[11],33
NCCc1ccc(O)c(O)c1 [Dopamine],brain penetration index (BPI),[1],about 4
same,BPI Value (%),[1],4%
same,changes in open-field activity,[10],No significant changes
"CCC=CCC=CCC=CCC=CCC=CCC=CCCC(=O)O [carrier molecule (T), 4, 7, 10, 13, 16, 19 docosahexa-enoic acid, reference compound]",swelling of the brain,[12],induce swelling of the brain
same,changes in open-field activity,[10],No significant changes
